The values below are quoted from earlier work in patent US20100069490A1 (priority 2006, published 2010).

In data set [1] the test system is rhino mouse model. Particulars: applied locally.
The subject of data set [2] is human polymorphonuclear leukocytes.
The conditions of data set [3]: in vivo and in vitro.
In data set [4] the test system is lipase. Particulars: pure or in combination with synergisms.
For data set [5], the system named is bacteria.

Where a name gives a salt, the structure may show the parent alone.

As to `COc1ccc(-c2ccc3cc(C(=O)O)ccc3c2)cc1C12CC3CC(CC(C3)C1)C2` [Adapalene, 6-[3-(1-adamantyl)-4-methoxypheny]-2-naphthanoic acid], the comedolitic activity entry in data set [1] is listed as “comedolitic”. For the same molecule, in data set [2], the “inhibition of chemiotaxic and chemiokinetic response” value is “inhibits the chemiotaxic and chemiokinetic response”. Also, in data set [3], the “anti-inflammatory activity versus reference retinoids” value was “superior to the reference retinoids”.
For `CCOC(=O)CC(O)(CC(=O)OCC)C(=O)OCC` [Triethyl citrate, Triethyl-2-hydroxypropan-1,2,3-tricarboxylate], in data set [4], the “inhibition of hydrolysis of the triglycerides” value was “able to inhibit hydrolysis of the triglycerides”. The antibacterial activity result in data set [5] is given as “has antibacterial activity”.
